IC50 data for 19 compounds are collected here from US9951063B2, “8-(piperazin-1-yl)-1,2,3,4-tetrahydro-isoquinoline derivatives” (IDORSIA PHARMACEUTICALS LTD, priority 2014, dated 2018).

The structures appear in SMILES notation.

What is called IC50 is the concentration at which inhibition is half-maximal.

Sequence of human CXCR3A (P49682 whole entry): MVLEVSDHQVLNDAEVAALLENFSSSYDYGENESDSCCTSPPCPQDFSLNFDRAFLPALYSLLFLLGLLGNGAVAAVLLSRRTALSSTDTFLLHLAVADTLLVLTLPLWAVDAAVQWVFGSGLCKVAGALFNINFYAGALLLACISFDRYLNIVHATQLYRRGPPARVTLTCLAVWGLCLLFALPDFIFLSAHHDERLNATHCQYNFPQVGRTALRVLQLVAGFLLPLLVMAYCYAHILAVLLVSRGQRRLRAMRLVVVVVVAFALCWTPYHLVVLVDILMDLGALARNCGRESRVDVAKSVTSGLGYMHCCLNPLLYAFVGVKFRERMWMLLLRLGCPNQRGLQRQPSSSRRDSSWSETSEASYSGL

The target of this assay is human CXCR3A (Homo sapiens (Human), UniProt P49682). The assay can be described thus: FLIPR assay (inhibition of CXCL10-induced calcium signal). The class given is cell-based. Conditions: engineered CHO-K1 cells expressing human CXCR3A coupled to Galpha(16); Fluo-4-AM; CXCL10 agonist 20 nM; mean values where determined several times. The method, then:
The bioactivity of compounds is tested in a fluorometric imaging plate reader (FLIPR: Molecular Devices) using engineered CHO-K1 cells expressing the human CXCR3A (GenBank: AY242128) coupled to a G protein (Galpha(16)). Cells are plated the day prior to bioassay in F12 medium supplemented with 10% FBS and G418 and hygromycin antibiotics to maintain recombinant selection. At the day of bioassay, cells are washed and dye loaded for one hour with Fluo-4-AM (Invitrogen) in Hanks Balanced Salt Solution (Invitrogen), buffered with 20 mM Hepes at pH 7.4 and sodium bicarbonate (0.038%), containing 5 mM probenecid. This buffer, but lacking the dye and containing probenecid at a concentration of 2.5 mM, is also used for washing steps (wash buffer); or lacking both dye and probenecid but supplemented with 0.1% BSA for compound dilution steps (dilution buffer). Cells are washed free of excess dye and 60 microliter of wash buffer is added. Stock solutions of test compounds are made up at a concentration of 10 mM in DMSO, and serially diluted in dilution buffer to concentrations required for inhibition dose response curves. After a 10 minute incubation period at 37° C., 10 microliters of each compound dilution are transferred from a compound plate to the plate containing the recombinant cells in the FLIPR instrument according to the manufacturer's instructions. Following basal readings, 10 microliter CXCL10 agonist at a concentration of 20 nM (from Peprotech) is added, again using the FLIPR instrument. Changes in fluorescence are monitored before and after addition of the test compounds. Emission peak values above base level after CXCL10 addition are exported after base line subtraction.
The calculated IC50 values may fluctuate depending on the daily assay performance. Fluctuations of this kind are known to those skilled in the art. In the case where IC50 values have been determined several times for the same compound, mean values are given.
Regarding `Cc1nc(C)n(CC(=O)N2CCN(c3ccc(C(F)(F)F)c4c3CN(c3cnc(C5CC5)nc3)CC4)C[C@H]2C)n1` [Example 46, 1-{(R)-4-[2-(2-Cyclopropyl-pyrimidin-5-yl)-5-trifluoromethyl-1,2,3,4-tetrahydro-isoquinolin-8-yl]-2-methyl-piperazin-1-yl}-2-(3,5-dimethyl-[1,2,4]triazol-1-yl)-ethanone], the IC50 came to 0.00437 µM.
For `COc1ncc(N2CCc3c(C(F)(F)F)ccc(N4CCN(C(=O)Cn5nc(C)cc5C)[C@H](C)C4)c3C2)cn1` [Example 24, 2-(3,5-Dimethyl-pyrazol-1-yl)-1-{(R)-4-[2-(2-methoxy-pyrimidin-5-yl)-5-trifluoromethyl-1,2,3,4-tetrahydro-isoquinolin-8-yl]-2-methyl-piperazin-1-yl}-ethanone], the IC50 is 0.0037 µM.
As for `Cn1c(=O)n(CC(=O)N2CCN(c3cccc4c3CN(C(=O)OCc3ccccc3)CC4)CC2)c2ccccc21` [Example 139, 8-{4-[2-(3-Methyl-2-oxo-2,3-dihydro-benzoimidazol-1-yl)-acetyl]-piperazin-1-yl}-3,4-dihydro-1H-isoquinoline-2-carboxylic acid benzyl ester], the IC50 is 0.0217 µM.
In the case of `CCOc1ncc(N2CCc3c(C(F)(F)F)ccc(N4CCN(C(=O)Cn5nc(C)cc5C)CC4)c3C2)cn1` [Example 29, 2-(3,5-Dimethyl-pyrazol-1-yl)-1-{4-[2-(2-ethoxy-pyrimidin-5-yl)-5-trifluoromethyl-1,2,3,4-tetrahydro-isoquinolin-8-yl]-piperazin-1-yl}-ethanone] it was 0.0305 µM.
The result for `Cc1ccc(N2CCc3cccc(N4CCN(C(=O)Cn5cnc6cccnc65)[C@H](C)C4)c3C2)cn1` [Example 92, 2-Imidazo[4,5-b]pyridin-3-yl-1-{(R)-2-methyl-4-[2-(6-methyl-pyridin-3-yl)-1,2,3,4-tetrahydro-isoquinolin-8-yl]-piperazin-1-yl}-ethanone] reads 0.00097 µM.
As to `Cc1cc(C)n(CC(=O)N2CCN(c3ccc(C(F)(F)F)c4c3CN(c3ncc(Br)cn3)CC4)C[C@H]2C)n1` [Example 14, 1-{(R)-4-[2-(5-Bromo-pyrimidin-2-yl)-5-trifluoromethyl-1,2,3,4-tetrahydro-isoquinolin-8-yl]-2-methyl-piperazin-1-yl}-2-(3,5-dimethyl-pyrazol-1-yl)-ethanone], the IC50 amounted to 0.0277 µM.
In the case of `CCOc1ncc(N2CCc3c(F)ccc(N4CCN(C(=O)Cn5cnc6cccnc65)[C@H](C)C4)c3C2)cn1` [Example 129, 1-{(R)-4-[2-(2-Ethoxy-pyrimidin-5-yl)-5-fluoro-1,2,3,4-tetrahydro-isoquinolin-8-yl]-2-methyl-piperazin-1-yl}-2-imidazo[4,5-b]pyridin-3-yl-ethanone] it was 0.0031 µM; in that of `COc1ccc(N2CCc3cccc(N4CCN(C(=O)Cn5cnc6cccnc65)[C@H](C)C4)c3C2)nn1` [Example 119, 2-Imidazo[4,5-b]pyridin-3-yl-1-{(R)-4-[2-(6-methoxy-pyridazin-3-yl)-1,2,3,4-tetrahydro-isoquinolin-8-yl]-2-methyl-piperazin-1-yl}-ethanone], 0.0109 µM.
On to `CCc1csc(N2CCc3c(C(F)(F)F)ccc(N4CCN(C(=O)Cn5nc(C)cc5C)[C@H](C)C4)c3C2)n1` [Example 3, 2-(3,5-Dimethyl-pyrazol-1-yl)-1-{(R)-4-[2-(4-ethyl-thiazol-2-yl)-5-trifluoromethyl-1,2,3,4-tetrahydro-isoquinolin-8-yl]-2-methyl-piperazin-1-yl}-ethanone], for which the 50% inhibitory concentration (IC50) was determined as 0.0151 µM.
`C[C@@H]1CN(c2cccc3c2CN(C(=O)C2CCCC2)CC3)CCN1C(=O)Cn1cnc2cccnc21` [Example 69, 1-[(R)-4-(2-Cyclopentanecarbonyl-1,2,3,4-tetrahydro-isoquinolin-8-yl)-2-methyl-piperazin-1-yl]-2-imidazo[4,5-b]pyridin-3-yl-ethanone]: the IC50 amounted to 0.0217 µM.
The result for `C[C@@H]1CN(c2ccc(C(F)(F)F)c3c2CN(c2cnc(C4CC4)nc2)CC3)CCN1C(=O)Cn1ncc2cccnc21` [Example 47, 1-{(R)-4-[2-(2-Cyclopropyl-pyrimidin-5-yl)-5-trifluoromethyl-1,2,3,4-tetrahydro-isoquinolin-8-yl]-2-methyl-piperazin-1-yl}-2-pyrazolo[3,4-b]pyridin-1-yl-ethanone] reads 0.00727 µM; that for `C[C@@H]1CN(c2cccc3c2CN(c2ccc(C(F)(F)F)cn2)CC3)CCN1C(=O)Cn1cnc2cccnc21` [Example 103, 2-Imidazo[4,5-b]pyridin-3-yl-1-{(R)-2-methyl-4-[2-(5-trifluoromethyl-pyridin-2-yl)-1,2,3,4-tetrahydro-isoquinolin-8-yl]-piperazin-1-yl}-ethanone], 0.0207 µM.
In the case of `C[C@@H]1CN(c2ccc(C(F)(F)F)c3c2CN(c2ccccc2)CC3)CCN1C(=O)Cn1cnc2cccnc21` [Example 16, 2-Imidazo[4,5-b]pyridin-3-yl-1-[(R)-2-methyl-4-(2-phenyl-5-trifluoromethyl-1,2,3,4-tetrahydro-isoquinolin-8-yl)-piperazin-1-yl]-ethanone] it was 0.00619 µM.
As to `CCc1ncc(N2CCc3c(C(F)(F)F)ccc(N4CCN(C(=O)Cn5nc(C)nc5C)[C@H](C)C4)c3C2)cn1` [Example 58, 2-(3,5-Dimethyl-[1,2,4]triazol-1-yl)-1-{(R)-4-[2-(2-ethyl-pyrimidin-5-yl)-5-trifluoromethyl-1,2,3,4-tetrahydro-isoquinolin-8-yl]-2-methyl-piperazin-1-yl}-ethanone], the IC50 worked out at 0.0169 µM.
The result for `CCOc1ncc(N2CCc3c(C(F)(F)F)ccc(N4CCN(C(=O)Cn5nc(C)nc5C)CC4)c3C2)cn1` [Example 30, 2-(3,5-Dimethyl-[1,2,4]triazol-1-yl)-1-{4-[2-(2-ethoxy-pyrimidin-5-yl)-5-trifluoromethyl-1,2,3,4-tetrahydro-isoquinolin-8-yl]-piperazin-1-yl}-ethanone] reads 0.0138 µM; that for `C[C@@H]1CN(c2cccc3c2CN(C(=O)C2CC2)CC3)CCN1C(=O)Cn1cnc2cccnc21` [Example 61, 1-[(R)-4-(2-Cyclopropanecarbonyl-1,2,3,4-tetrahydro-isoquinolin-8-yl)-2-methyl-piperazin-1-yl]-2-imidazo[4,5-b]pyridin-3-yl-ethanone], 0.223 µM; that for `Cc1cc(C)n(CC(=O)N2CCN(c3ccc(C(F)(F)F)c4c3CN(c3nc5ccc(F)cc5s3)CC4)C[C@H]2C)n1` [Example 10, 2-(3,5-Dimethyl-pyrazol-1-yl)-1-{(R)-4-[2-(6-fluoro-benzothiazol-2-yl)-5-trifluoromethyl-1,2,3,4-tetrahydro-isoquinolin-8-yl]-2-methyl-piperazin-1-yl}-ethanone], 0.00945 µM.
The result for `Cc1ncc(N2CCc3cccc(N4CCN(C(=O)Cn5cnc6cccnc65)[C@H](C)C4)c3C2)cn1` [Example 109, 2-Imidazo[4,5-b]pyridin-3-yl-1-{(R)-2-methyl-4-[2-(2-methyl-pyrimidin-5-yl)-1,2,3,4-tetrahydro-isoquinolin-8-yl]-piperazin-1-yl}-ethanone] reads 0.0125 µM.
For `C[C@@H]1CN(c2cccc3c2CN(c2nccs2)CC3)CCN1C(=O)Cn1cnc2cccnc21` [Example 113, 2-Imidazo[4,5-b]pyridin-3-yl-1-[(R)-2-methyl-4-(2-thiazol-2-yl-1,2,3,4-tetrahydro-isoquinolin-8-yl)-piperazin-1-yl]-ethanone], the IC50 is 0.0122 µM.
